Test results taken from US10494402B2, “Peptides that stimulate subcutaneous adipogenesis” (The Regents of the University of California, priority 2012, dated 2019).

Tests used:
[1] = system: rat mesenchymal stem cells; test: Adipogenesis Assay 1 (IBMX/dexamethasone priming, peptide replaces insulin; Oil Red O or BODIPY); format: cell-based; conditions: for adipogenic activity, Oil Red O, fold change relative to negative control / Fold adipogenic induction vs. negative control / Specific activity (activity/1000 daltons): Assay 1; for adipogenic activity, Oil Red O, fold change relative to negative control: 0.5, 5, and 50 μg/ml over 3 weeks; for adipogenic activity of truncation fragments: truncation experiments, assays 1 and 2, FIGS. 7, 8, 9
Experimental: Reagents: (1) 3-isobutyl-1-methylxanthine (IBMX) solution: 0.5M in DMSO; (2) Insulin solution: 10 mg/mL recombinant human insulin; (3) Dexamethasone solution in 10 mM in ethanol; (4) Oil Red O (0.36% in 60% isopropanol) or BODIPY dye (BODIPY 493/503 (4,4-difluoro-1,3,5,7-tetramethyl-4-bora-3a,4a-diaza-s-indacene-8-propionic acid, succinimidyl ester) from Invitrogen at 4-10 μM).
Adipogenesis Initiation Media: mesenchymal stem cell expansion media/0.5 mM IBMX/1 μM dexamethasone. Mesenchymal stem cell expansion media is commercially available from Millipore. The IBMX Solution was diluted 1:1000 and the Dexamethasone Solution was diluted 1:10,000 in expansion media containing antibiotics and antimycotics. The prepared media was stored at 4° C.
Adipogenesis Progression Media for positive control: mesenchymal stem cell expansion media/10 μg/mL insulin. The Insulin Solution was diluted 1:1000 in the expansion media and stored at 4° C.
Experimental Adipogenesis Progression Media: mesenchymal stem cell expansion media/1-100 μg/mL RHAMM antagonist peptides.
Adipogenesis Maintenance Media: mesenchymal stem cell expansion media containing antibiotics and antimycotics.
Negative Control Media: DMEM/10% normal calf serum.
Pre-adipocyte stem cells including bone marrow mesenchymal stem cells and fibroblasts including reticular and papillary dermal fibroblasts were propagated using standard tissue culture methods. Cells were trypsinized to remove the cells from the substratum. The trypsin was neutralized and cells were counted using a hemocytometer. Cells were resuspended at 30,000 cells/mL in expansion media. […] of cell suspension was plated per well of 24-well plate, with several wells left empty for blank well staining.
Cells were incubated for 1-2 days until they reached confluency. Approximately 1.8 mL of media was removed from each well and replaced with 2 mL Adipogenesis Initiation Media. For negative control wells, expansion media only was used at this step and for subsequent media changes. For all media changes, media was replaced as gently as possible to avoid disturbing the monolayer.
Cells were incubated for 48 hours at 37° C., 5% CO2. 2 mL media was removed from each well, and replaced with 2 mL either positive control or experimental Adipogenesis Progression Media per well. Cells were again incubated for 48 hours at 37° C., 5% CO2. 2 mL of media was removed from each well and replaced with 2 mL Adipogenesis Maintenance Media per well. In addition, media was added to the empty wells reserved for blank well staining Cells were incubated for at least 48 hours at 37° C., 5% CO2. Media was replaced every 48-72 hours. Accumulation of intracellular lipid droplets continued for at least 5 days.
For quantification of Oil Red O staining, media was removed and cells were washed twice with PBS, using care to gently add the PBS. 0.5 mL Oil Red O solution was added per well of 24-well plate, including to the wells lacking cells, but containing media. Cells were incubated for 15 minutes at room temperature. The staining solution was then removed and wells were washed three times with 1 mL of phosphate buffered saline (PBS). In some experiments, following removal of the last wash, stained plates were scanned or photographed.
Adipogenesis was quantified using a spectrophotometer or fluorometer. 0.25 mL Dye Extraction Solution (isopropyl alcohol) was added per well, and the plate was set on an orbital shaker or platform rocker for 15-30 minutes. Extracted dye was transferred into a cuvette and absorbance was read in a spectrophotometer at visible range for oil red 0 or transferred to a 96-well plate and quantified in a plate reader.
For quantification of BODIPY dye uptake, media was removed and cells were washed twice with PBS, using care to gently add the PBS. Cells were then fixed in 3% paraformaldehyde, washed in PBS then incubated for 1 hour in the dark with the BODIPY solution, prepared in PBS. […]

[2] = system: rat mesenchymal stem cells; test: Adipogenesis Assay 2 (dexamethasone/insulin/indomethacin induction, then peptide; Oil Red O or BODIPY); format: cell-based; conditions: for adipogenic activity of pentamers / adipogenic activity relative to KSEVSK hexamer: FIG. 35, groups labelled A2-, doses 1, 5, 25 μg, absorbance at 520 nm; for Fold adipogenic induction vs. negative control / Specific activity (activity/1000 daltons) / adipogenic activity, Oil Red O, fold change relative to negative control: Assay 2; for adipogenic activity, Oil Red O, fold change relative to negative control: 0.5, 5, and 50 μg/ml over 3 weeks
Experimental: Reagents: The dexamethasone, insulin, and Oil Red O solutions were the same as described above for assay 1. Indomethacin Solution contained 10 mM indomethacin in methanol. The BODIPY 493/503 dye was used at a concentration of 4 μM.
Adipogenesis Maintenance Media was prepared as described above.
Adipogenesis Induction Media: To prepare 501 mL of Adipogenesis Induction Media, 50 μL of the 10 mM stock solution of dexamethasone, 500 μL of the 10 mg/ml stock solution of insulin, 5 ml of a 10 mM stock solution of indomethacin, and 5 mL of a 100× stock solution of penicillin and streptomycin were added to 490 mL of mesenchymal stem cell expansion media.
Pre-adipocyte stem cells, bone marrow mesenchymal stem cells and fibroblasts such as dermal reticular and papillary fibroblasts were propagated using standard tissue culture methods. Cells were trypsinized to remove cells from the substratum, the trypsin was neutralized, and cells were counted using a hemocytometer. Cells were resuspended at 60,000 cells/ml in low glucose DMEM containing 10% calf serum. 1 mL of cell suspension per well was plated in a 24-well plate, with several wells left empty for blank well staining.
Cells were incubated overnight and had reached confluency at this point. Approximately 1.8 ml of media was removed from each well and replaced with 2 ml Adipogenesis Induction Media. For negative control wells, expansion medium only was used at this step and for subsequent media changes. For all media changes, media was replaced as gently as possible to avoid disturbing the monolayer.
Media was removed and replaced with 2 ml of maintenance medium containing either RHAMM antagonist peptides (experimental group) or insulin (concentration as in the induction medium used as positive control). […]
Media was removed and BODIPY or Oil Red O staining was performed as described above for assay 1.
As described above in Example 1, two different adipogenesis assays were used herein to assess the adipogenic effects of the peptides in rat mesenchymal stem cells. Assay 1 is an assay that is typically used to promote transdifferentiation of fibroblasts into adipocytes, whereas Assay 2 is typically used to promote differentiation of multi-potential mesenchymal progenitor cells into adipocytes. Immortalized rat bone marrow mesenchymal stem cells were used for both assays. These cells contain cells of different lineages, including fibroblasts, pre-adipocytes, pre-chondrocytes and pre-osteoblasts. Thus, Assay 1 was used to promote transdifferentiation of the fibroblast lineages into adipocytes and Assay 2 was used to promote differentiation of the pre-adipocytes into adipocytes.
As described in Example 1 above, the priming stimulus for Assay 1 includes IBMX (3-isobutyl-1-methylxanthine) and dexamethasone, and then insulin as the final adipogenic stimulus. The priming stimulus for assay 2 includes IBMX, dexamethasone and indomethacin, and then insulin as the final adipogenic stimulus.

[3] = system: 2D rat Pre-adipocytes (rat mesenchymal stem cells); test: Adipogenic potential ranking in 2D tissue culture, rat pre-adipocytes; format: cell-based; conditions: ranked on a scale of 0-5 with 5 representing the highest possible score
Experimental: (§1) Examples of the adipogenic effects of RHAMM antagonists (peptide B (SEQ ID NO: 2), peptide P15-1 (SEQ ID NO. 1), and the antibody to peptide B) are summarized in Table 1. Peptide P15-1, peptide B, and a RHAMM antibody were assayed for their effects on pre-adipocyte stem cells in culture and when injected into the dermis of aged rats. Reagents were ranked on a scale of 0-5 with 5 representing the highest possible score and a completely filled in Harvey ball. “2D” refers to two-dimensional tissue culture.

Rat skin = test: Rat dermal skin model of adipogenesis (injection into dermis); format: in vivo; conditions: injected into the dermis of aged rats; scale of 0-5, 5 highest
Experimental: as §1
In FIGS. 5A and 5B, data are shown as a ratio of the area (“surface area”) of fat pads expressed as a ratio of experimental/control values.
The 6-mer (KSEVSK; SEQ ID NO: 3) was tested for adipogenic effect in rat skin in vivo. The results of this testing are shown in the photographs in FIG. 10.

2D human Pre-adipocytes = test: Adipogenic potential ranking in 2D tissue culture, human pre-adipocytes; format: cell-based; conditions: scale of 0-5, 5 highest
Experimental: as §1

[4] = system: mesenchymal stem cells or papillary fibroblasts; test: Adipogenesis by RHAMM antagonists in tissue culture and in vivo (summary statements)
Text: We hypothesized that the fragment and the antibody were blocking RHAMM function by competitive inhibition and by direct binding/blocking of RHAMM, respectively. Using truncation analyses, the size of the peptide was further reduced to 32 amino acids ([…] (SEQ ID NO: 92)) and it was shown that adipogenic activity is localized to a 15 amino acid peptide (KLKDENSQLKSEVSK (SEQ ID NO: 2); “peptide B” or “B-1” herein) shown in FIG. 2. This peptide was chemically synthesized to use as a competitive blocker, and antibodies were prepared against this sequence tagged with keyhold lymphocyte hemacyanin (KLH) to directly bind/block RHAMM function.
The RHAMM sequence that contains adipogenic activity also contains the hyaluronan binding region of this protein.
All of these reagents can replace insulin in their ability to promote adipogenesis in mesenchymal stem cells or papillary fibroblasts.

mesenchymal stem cell = test: Adipogenesis with commercially available mesenchymal stem cell kit; format: cell-based
Experimental: Ablation of RHAMM expression promotes adipogenesis (Tolg et al., 2006, J Cell Biol). A RHAMM carboxy-terminal sequence [^AA681LDAFEAEKQA LLNEHGATQEQLNKIRDSYAQLLGHQNLKQKIKHVVKLKDENSQLKSEVSKLRSQLVKRKQNELRLQGELDKALGIRHFDPSKAFCHASKENFTPLKEGNPNCC^aa794 (SEQ ID NO: 91)] was produced as a recombinant protein, and antibodies were prepared to this protein fragment.

## ASEVSA
[1]
  adipogenic activity, Oil Red O, fold change relative to negative control: significantly increased adipogenic activity as compared to both the negative control and the KSEVSK 6-mer

## KLKDENS [fragment corresponding to one half of peptide B]
[1]
  adipogenic activity of truncation fragments: Only the SQLKSEVSK (SEQ ID NO: 44) fragment was found to be adipogenic

## KSEVS
[2]
  adipogenic activity of pentamers: low level of adipogenic activity
  adipogenic activity relative to KSEVSK hexamer: much less active than the KSEVSK (SEQ ID NO: 3) hexamer

## LKSEVSK
[2]
  Fold adipogenic induction vs. negative control: 3
  Specific activity (activity/1000 daltons): 3.39 activity/1000 daltons
[1]
  Fold adipogenic induction vs. negative control: 2
  Specific activity (activity/1000 daltons): 2.26 activity/1000 daltons
  adipogenic activity of truncation fragments: also found to be adipogenic

## LSELEK
[2]
  adipogenic activity, Oil Red O, fold change relative to negative control: increased adipogenesis

## SEVSK
[2]
  adipogenic activity of pentamers: low level of adipogenic activity
  adipogenic activity relative to KSEVSK hexamer: much less active than the KSEVSK (SEQ ID NO: 3) hexamer

## SIMMSR
[2]
  adipogenic activity, Oil Red O, fold change relative to negative control: weakly adipogenic
[1]
  adipogenic activity, Oil Red O, fold change relative to negative control: weakly adipogenic

## SQLKSEVSK
[2]
  Fold adipogenic induction vs. negative control: 3.0
  Specific activity (activity/1000 daltons): 2.64 activity/1000 daltons
[1]
  Fold adipogenic induction vs. negative control: 2.4
  Specific activity (activity/1000 daltons): 2.11 activity/1000 daltons
  adipogenic activity of truncation fragments: found to be adipogenic

## STMMRSH
[2]
  adipogenic activity, Oil Red O, fold change relative to negative control: active at the 0.5 μg/ml concentration
[1]
  adipogenic activity, Oil Red O, fold change relative to negative control: significantly greater adipogenic activity than the negative control

## STMMSRSHK
[1]
  adipogenic activity of truncation fragments: has adipogenic activity

## STMMSRSHKTRSHHV [peptide P15-1, reference compound]
[3]
  adipogenic potential, 2D rat Pre-adipocytes (rat mesenchymal stem cells): 2
Rat skin
  adipogenic potential, In vivo Rat skin: 2
2D human Pre-adipocytes
  adipogenic potential, 2D human Pre-adipocytes: 2
[4]
  adipogenesis in tissue culture and in vivo: promotes adipogenesis in tissue culture and in vivo

## STRMSR
[2]
  adipogenic activity, Oil Red O, fold change relative to negative control: weakly adipogenic
[1]
  adipogenic activity, Oil Red O, fold change relative to negative control: weakly adipogenic

## STTMSR
[2]
  adipogenic activity, Oil Red O, fold change relative to negative control: weakly adipogenic
[1]
  adipogenic activity, Oil Red O, fold change relative to negative control: weakly adipogenic

B1: SEQ ID NO: 91: RHAMM carboxy-terminal sequence (aa681-aa794) produced as a recombinant protein (protein)
chain: LDAFEAEKQALLNEHGATQEQLNKIRDSYAQLLGHQNLKQKIKHVVKLKDENSQLKSEVSKLRSQLVKRKQNELRLQGELDKALGIRHFDPSKAFCHASKENFTPLKEGNPNCC
Mesenchymal stem cell
  adipogenesis: promoted adipogenesis
